Patent publication US4431807A, “4-Methyl-5-(unsubstituted and substituted phenoxy)-6-methoxy-8-(aminoalkylamino)quinolines” (priority 1981, dated 1984)

Assays:
[1] = tested on: Plasmodium berghei; assay: Blood schizonticidal (suppressive) test, Rane mouse test, P. berghei; type: in vivo, Plasmodium berghei KBG 173 in ICR/HA Swiss mice
Source text: Blood Schizonticidal Test (Mouse), University of Miami, Rane (Suppressive)
This system is based on comparisons of responses to test compounds by Plasmodium berghei KBG 173 malaria in mice as expressed in mean survival times and the mean survival times of untreated controls. Thus, compounds noted as active produce increases in the survival times of the treated animals that are significant when compared with the survival times of untreated controls. Since an established disease is less sensitive to treatment than a disease in the early stages of development, treatment is withheld until the parasitemia is relatively high in order to insure a more reliable assay of activity and the selection of appropriate compounds for intensive preclinical studies.
Utilizing young ICR/HA Swiss mice and a standard inoculum of Plasmodium berghei KBG 173, it is possible to produce a uniform disease fatal to 100% of untreated animals within 6 to 8 days with a mean survival time of 6.2 days. Test animals weigh from 18 to 22 grams but weight variations in any given experimental or control group are confined to 2-3 grams. All animals in any given test are approximately of the same age. Animals on test are housed in metal-topped plastic cages, given a standard laboratory diet and water ad libitum.
Test animals receive an intraperitoneal injection of 0.5 ml of 1:100 dilution of heparinized heart's blood with a minimum of 90% parasitized cells (4×10^7 cells), drawn from donor mice infected one week earlier with Plasmodium berghei. The donor stran is maintained by weekly passages in separate groups of mice inoculated with a 0.5 ml of 1:500 dilution of heparinized heart's blood.
Test compounds are administered after dissolution or suspension in peanut oil. A single dose is given subcutaneously 72 hours after the mice are infected with Plasmodium berghei. At this time a 10-15 percent parasitemia has developed; the disease is well established but has not produced sufficient debility to alter the response of the host to toxic effects of the drug on test. Since treatment is withheld for three days to permit the infection to become well established and death occurs in untreated controls within 6-8 days, it is believed that this system presents a candidate compound with the maximum challenge. In order to check factors such as changes in the infectivity of Plasmodium berghei or in the susceptibility of the host or to detect technical errors, a group of infected animals treated with pyrimethamine at dose levels producing definite increases in survival time is included as a positive control in every experiment.
In each experiment test compounds are administered in graded doses. […] However, if an active drug is toxic for the host, its toxicity may become a limiting factor; continued increases in dose levels also increase the toxic effects and may result in the diminution of survival times. Deaths prior to the sixth day, when untreated controls begin to die, are regarded as non-parasitic and become the basis for toxicity evaluations. Treated animals are kept under observation for 60 days. Survivors at the end of this period of time are considered as cured.
An increase of 100% in mean survival time is considered the minimum effective response for a candidate compound. In calculating mean survival time, toxic deaths and 60 day survivors are not included.
The antimalarial activity data acquired by the two test procedures described above are listed in Tables 2 and 3 for the compounds of this invention. In Table 4, the most promising compound of the series, compound 1, is compared directly with primaquine together with some additional test data for compound 1 compared to primaquine. In all the work reported herein primaquine is used in the form of the diphosphate salt. The test data are expressed in the form of the number of cures at a given dose level. […]

[2] = tested on: Plasmodium cynomolgi; assay: Radical curative (tissue schizonticidal) test, SEATO, P. cynomolgi, rhesus monkey; type: in vivo, Plasmodium cynomolgi (strain B) in Indian rhesus monkeys
Experimental: Radical Curative Test in Rhesus Monkeys, SEATO Medical Research Laboratory, Bangkok, John Brown/Richard Andre
This test is designed to evaluate the tissue schizonticidal (radical curative) activity of test compounds. Well-conditioned Indian rhesus monkeys of either sex weighing 2-4 Kg are utilized. Plasmodium cynomolgi (strain B) sporozoites are prepared by grinding heavily infected Anopheles dirus salivary glands in 1:1 monkey serum-saline vehicle.
Monkeys are infected by I.V. injection of 10^6 freshly isolated P. cynomolgi sporozoites on day 0. A rapidly rising parasitemia develops after a 7-9 day prepatent period, and administration of the test drug is initiated when the rising parasite count exceeds 5000 per mm^3 (typically day 10-12). Test drugs are administered orally (by nasogastric intubation) once daily for 7 consecutive days in aqueous solution or, if insoluble, in suspension in 0.3% methylcellulose solution. Chloroquine diphosphate (3.1 mg/kg base/kg orally per day) is always administered concurrently with the test drug for 7 days to eliminate blood schizonts. Thus any tissue schizonticidal activity of the test drug will always be apparent even if it lacks blood schizonticidal activity.
A vehicle control monkey and a positive drug control (primaquine) monkey are included in each group of inoculated monkeys.
The effect of the test drug is determined by counting blood parasites. Parasite counts are made daily through day 20, and every two days thereafter. Initially a clearance of blood parasites is observed due to the blood schizonticidal action of chloroquine. […] If there is no relapse within 20 days of the initial clearance of parasitemia, the monkey is splenectomized and its parasitemia followed for an additional 30 days. If there is no relapse within this period, the experiment is terminated and the monkey is considered "cured".
Primaquine diphosphate cures over 90% of monkeys in this test system when administered at a dose of 1.3 mg/kg of salt per day for 7 days ([…]) in combination with chloroquine.
The antimalarial activity data acquired by the two test procedures described above are listed in Tables 2 and 3 for the compounds of this invention. In Table 4, the most promising compound of the series, compound 1, is compared directly with primaquine together with some additional test data for compound 1 compared to primaquine. In all the work reported herein primaquine is used in the form of the diphosphate salt. The test data are expressed in the form of the number of cures at a given dose level. Extension of life (mean survival time) relative to the controls is noted in the Rane mouse test; if the mean survival time is extended seven or more days, the compound is considered to be active.
The Molar Primaquine Index is useful in the radical curative test (Table II) as a gauge of the efficacy of a candidate drug relative to primaquine.

[3] = tested on: P. cynomolgi; assay: SEATO suppressive test, P. cynomolgi, rhesus monkey (parasitized blood inoculation, no chloroquine); type: in vivo, P. cynomolgi in rhesus monkey
Experimental: Equally significant is the suppressive activity comparison (Part A-2) in the Rhesus monkey. This test differs from the SEATO radical curative test primarily in that parasitemia is induced by intravenous inoculation of parasitized blood (rather than sporozoites) and that chloroquine is not co-administered with the test drug. […] On the other hand, compound 1 is curative at doses down to 1.0 mg/kg/day.

[4] = Acute oral toxicity, rats
[5] = Acute oral toxicity, guinea pigs
[6] = 160 mg/kg × 1, s.c., five mice, Table III
[7] = 320 mg/kg × 1, s.c., five mice, Table III
[8] = 640 mg/kg × 1, s.c., five mice, Table III

COc1cc(NC(C)CCCN)c2nccc(C)c2c1Oc1cccc(C(F)(F)F)c1.O=C(O)CCC(=O)O (stereo not drawn) [Compound 1, 8-(4-Amino-1-methylbutylamino)-6-methoxy-4-methyl-5-(3-trifluoromethylphenoxy)quinoline Succinate]
Extension of survival ([1]; 5 mg/kg salt, s.c., Table IV A-1): 7 days
Cures (60 days survival) ([1]; 5 mg/kg × 1, s.c., five mice, Table III): 1C
Cures (60 days survival) ([1]; 10 mg/kg × 1, s.c., five mice, Table III): 3C
Cures (60 days survival) ([1]; 20 mg/kg × 1, s.c., five mice, Table III): 5C
Cures (60 days survival) ([1]; 40 mg/kg × 1, s.c., five mice, Table III): 5C
Cures (60 days survival) ([1]; 80 mg/kg × 1, s.c., five mice, Table III): 5C
Cures (60 days survival) [1, 6]: 5C
Cures (60 days survival) [1, 7]: 5C
Toxic deaths ([1]; 640 mg/kg salt, s.c., Table IV A-1): 4T
Cures (60 days survival) [1, 8]: 1C
Toxic [1, 8]: 4T
minimal effective dose ([1]; Plasmodium berghei, sc, single dose, read-out: Curative dose, suppressive test): 10 mg/kg
% curative (radical curative) ([2]; 0.316 mg/kg/day): 100%
Radical curative activity relative to primaquine ([2]; in words): markedly superior to primaquine
Molar Primaquine Index CD 100 ([2]; primaquine CD100 dose / drug CD100 dose, in moles): 4.8
minimal effective dose ([3]; Plasmodium cynomolgi, in Macaca mulatta, po, curative at doses down to, read-out: Lowest curative dose, suppressive test in rhesus): 1 mg/kg/day
LD50 ratio Compound 1/Primaquine ([4]; rats, female): 2.76
LD50 ratio Compound 1/Primaquine ([4]; rats, male): 1.46
LD50 ratio Compound 1/Primaquine ([5]; guinea pigs, male): 3.22

COc1cc(NC(C)CCCN)c2ncccc2c1 (stereo not drawn) [Primaquine Diphosphate, 8-((4-amino-1-methylbutyl)amino)-6-methoxy-quinoline, reference compound]
Extension of survival relative to controls ([1]; 80 mg/kg × 1, s.c., Table III): 9 days
Extension of survival ([1]; 160 mg/kg salt, s.c., Table IV A-1): 9 days
Extension of survival relative to controls ([1]; 160 mg/kg × 1, s.c., Table III): 9 days
Suppressive activity (active/inactive) [1, 6]: A (Active, 7 Days or more estension of survival relative to controls.)
Toxic [1, 6]: 2T
Toxic [1, 7]: 5T
Toxic [1, 8]: 5T
Cures, Rane mouse test ([1]; all doses, s.c., Table IV A-1): No Cures
Toxicity and curative activity, Rane mouse test ([1]; any dose level): toxic and non-curative at any dose level
Radical curative activity ([2]; 0.316 mg/kg/day): inactive
Radical curative test, cures ([2]; 1.0 mg/kg salt, oral, × 7 days, Table IV B-1): 1/2
Monkeys cured ([2]; 1.3 mg/kg of salt per day for 7 days (1.0 mg/kg free base) with chloroquine): over 90%
Cures, suppressive test in rhesus ([3]; all doses, oral, × 7 days): No Cures
Suppressive activity in the rhesus ([3]; in words): failed to clear the blood schizonts completely
LD50 ([4]; rat, in vivo, po): 224 mg/kg
Acute Oral LD50 ([4]; rats, male): 177 mg/kg
LD50 ([5]; guinea pig, in vivo, po): 54 mg/kg
